Experimental data as given in paper PMC8998838, “Functional Characterization of the Solute Carrier LAT-1 (SLC7A5/SLC2A3) in Human Brain Capillary Endothelial Cells with Rapid UPLC-MS/MS Quantification of Intracellular Isotopically Labelled L-Leucine” (International Journal of Molecular Sciences, 2022).

Molecular target: T1, L-type amino acid transporter 1 (LAT-1/SLC7A5) (Homo sapiens, UniProt Q01650)
T1 construct: with CD98 (4F2hc; SLC3A2, also printed as SLC2A3)
Test: inhibition of [[…]6, […]]-L-leucine uptake in hCMEC/D3 cells, UPLC-MS/MS
Assay type: cell-based

T1 sequence (Q01650 whole entry): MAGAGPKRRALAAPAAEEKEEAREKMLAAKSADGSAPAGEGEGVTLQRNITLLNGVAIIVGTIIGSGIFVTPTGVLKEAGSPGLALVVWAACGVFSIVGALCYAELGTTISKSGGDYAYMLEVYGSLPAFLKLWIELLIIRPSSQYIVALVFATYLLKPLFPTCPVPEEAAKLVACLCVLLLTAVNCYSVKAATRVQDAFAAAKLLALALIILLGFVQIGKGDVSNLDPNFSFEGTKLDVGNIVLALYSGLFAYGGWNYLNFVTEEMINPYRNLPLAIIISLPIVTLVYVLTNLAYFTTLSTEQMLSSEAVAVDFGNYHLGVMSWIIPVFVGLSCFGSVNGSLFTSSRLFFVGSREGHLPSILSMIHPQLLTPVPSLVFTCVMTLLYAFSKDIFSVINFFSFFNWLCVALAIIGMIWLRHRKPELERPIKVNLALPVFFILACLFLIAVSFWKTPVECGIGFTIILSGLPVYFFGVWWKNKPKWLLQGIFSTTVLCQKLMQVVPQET
T1 sequence (P08195 103-630 partner): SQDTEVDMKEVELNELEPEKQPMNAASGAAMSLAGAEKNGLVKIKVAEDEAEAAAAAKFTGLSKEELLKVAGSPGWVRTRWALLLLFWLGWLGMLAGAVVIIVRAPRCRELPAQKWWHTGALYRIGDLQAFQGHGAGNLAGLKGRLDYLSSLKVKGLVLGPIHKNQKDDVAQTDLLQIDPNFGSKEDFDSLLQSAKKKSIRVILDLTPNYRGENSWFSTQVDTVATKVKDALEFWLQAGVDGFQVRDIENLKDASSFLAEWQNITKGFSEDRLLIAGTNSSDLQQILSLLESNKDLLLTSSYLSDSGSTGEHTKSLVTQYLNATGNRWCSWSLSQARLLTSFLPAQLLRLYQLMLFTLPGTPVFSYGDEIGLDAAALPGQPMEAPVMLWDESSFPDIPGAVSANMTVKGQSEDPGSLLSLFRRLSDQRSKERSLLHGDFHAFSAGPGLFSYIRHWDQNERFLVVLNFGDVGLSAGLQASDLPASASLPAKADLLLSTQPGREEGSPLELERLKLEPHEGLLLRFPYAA

Compound	IC50
NC1(C(=O)O)CC2CCC1C2 (centres unmarked) [BCH, 2-aminobicyclo-(2,2,1)-heptane-2-carboxylic acid]	91 ± 39 µM
Nc1cc(COc2c(Cl)cc(C[C@H](N)C(=O)O)cc2Cl)c2oc(-c3ccccc3)nc2c1 [JPH203]	0.103 ± 0.015 µM
